Experimental findings from patent US9120749B2, “Quinoline derivatives and MELK inhibitors containing the same” (ONCOTHERAPY SCIENCE, INC., priority 2010, dated 2015) are described below.

Assay [1] has as its system A549 cells. Nature of the assay: Cell-based assay: anti-proliferative activity, Cell Counting Kit-8, 72 hours (A549). The following applies: Homo sapiens, A549, 72 h, 72 hours. The method, boiled down: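 Cell Counting Kit-8 read-out of A549 growth after 72 hours of inhibitor exposure, cells plated in 96-well format. Values reported as IC50.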
Background: Tetrazolium dyes change colour on reduction, which living cells bring about.

The test system of assay [2] is DU4475 cells. Kind of assay: Cell-based assay: anti-proliferative activity, Cell Counting Kit-8, 72 hours (DU4475). The conditions noted are these: Homo sapiens, DU-4475, 72 h.
Assay [3] addresses MELK (Homo sapiens, UniProt Q14680). Nature of the assay: Kinase assay: MELK activity, phosphorylation of FITC-labeled histone H3 peptide measured by IMAP fluorescence polarization. Type of assay: biochemical. The following applies: read-out: IC50 (μM) (kinase assay). The method, boiled down: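 Polarization of fluorescence served as the signal for MELK turnover of FITC-conjugated histone H3 peptide. Binding solution quenched each reaction, and plates stood 0.5 hour at room temperature before reading.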
In general terms: Polarisation of emitted light reports the rotation of a fluorescent probe.

In assay [4] the test system is HT-1197 cells. Nature of the assay: Cell-based assay: anti-proliferative activity, Cell Counting Kit-8, 72 hours (HT-1197, negative control without MELK expression). The following applies: Homo sapiens, HT1197, 72 h, HT1197 cells (negative control, no MELK expression), 72 hours. A digest of the protocol: (§1)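 Target-specific cytotoxicity: seeded cells treated with MELK inhibitor candidates for 72 h, proliferation quantified via CCK-8, IC50 fitted.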

Assay [5] concerns T47D cells. Kind of assay: Cell-based assay: anti-proliferative activity, Cell Counting Kit-8, 72 hours (T47D). The conditions noted are these: Homo sapiens, T47D, 72 h. The method, boiled down:
as §1

Chain of MELK (Q14680 whole entry, looked up): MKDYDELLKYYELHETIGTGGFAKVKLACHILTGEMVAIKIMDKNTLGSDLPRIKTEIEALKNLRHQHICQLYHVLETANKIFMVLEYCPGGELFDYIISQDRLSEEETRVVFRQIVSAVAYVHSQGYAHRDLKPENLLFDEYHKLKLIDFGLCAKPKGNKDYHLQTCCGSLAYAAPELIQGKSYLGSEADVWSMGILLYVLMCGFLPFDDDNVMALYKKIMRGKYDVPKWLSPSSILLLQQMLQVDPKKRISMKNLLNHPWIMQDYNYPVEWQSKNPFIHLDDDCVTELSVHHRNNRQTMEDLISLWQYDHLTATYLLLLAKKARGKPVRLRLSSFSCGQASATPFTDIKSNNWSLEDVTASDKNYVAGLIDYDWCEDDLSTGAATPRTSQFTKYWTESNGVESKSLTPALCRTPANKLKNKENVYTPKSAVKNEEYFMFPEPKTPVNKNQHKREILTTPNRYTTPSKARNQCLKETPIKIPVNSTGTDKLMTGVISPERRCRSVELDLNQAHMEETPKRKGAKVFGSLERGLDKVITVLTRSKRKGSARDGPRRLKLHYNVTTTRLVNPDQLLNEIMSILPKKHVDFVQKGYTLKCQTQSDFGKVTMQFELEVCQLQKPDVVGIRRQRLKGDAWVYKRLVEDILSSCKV

For `CN(C)Cc1ccc(Nc2c(C(=O)C3CC3)cnc3ccc(-c4cc(Cl)c(O)c(Cl)c4)cc23)cn1` [Example 657, Cyclopropyl{6-(3,5-dichloro-4-hydroxyphenyl)-4-[6-((dimethylamino)methyl)pyridin-3-ylamino]quinolin-3-yl}methanone], the IC50 in assay [1] was found to be 0.18 µM; in assay [2], 0.098 µM; in assay [3] it was 0.0089 µM; in assay [4] it was 2.8 µM; in assay [5], 0.31 µM.
For `O=C(c1cnc2ccc(-c3cc(Cl)c(O)c(Cl)c3)cc2c1Nc1ccc(CN2CCCC2)nc1)C1CC1` [Example 658, Cyclopropyl{6-(3,5-dichloro-4-hydroxyphenyl)-4-[6-(pyrrolidin-1-ylmethyl)pyridin-3-ylamino]quinolin-3-yl}methanone], in that order: 0.072 µM, 0.07 µM, 0.0078 µM, 4.5 µM and 0.3 µM.
`COc1cc(-c2ccc3ncc(C(=O)C4CC4)c(Nc4ccc(CN5CCCC5)nc4)c3c2)cc(Cl)c1O` [Example 659, (6-(3-chloro-4-hydroxy-5-methoxyphenyl)-4-(6-(pyrrolidin-1-ylmethyl)pyridin-3-ylamino)quinolin-3-yl)(cyclopropyl)methanone]: the IC50 in assay [1] turned out to be 0.32 µM; in assay [2] it was 0.28 µM; in assay [3] it was 0.013 µM; in assay [4], 7.3 µM; in assay [5], 0.6 µM.
In the same order, the values of `COc1cc(-c2ccc3ncc(C(=O)C4CC4)c(Nc4ccc(N5CCC[C@H](N)C5)nc4)c3c2)cc(Cl)c1O` [Example 660, (S)-(4-(6-(3-aminopiperidin-1-yl)pyridin-3-ylamino)-6-(3-chloro-4-hydroxy-5-methoxyphenyl)quinolin-3-yl)(cyclopropyl)methanone] are 0.22 µM, 0.046 µM, 0.0024 µM, 2.9 µM and 0.1 µM.
Consider `COC1CCN(C2CCC(Nc3c(C(=O)C4CC4)cnc4ccc(-c5cc(Cl)c(O)c(Cl)c5)cc34)CC2)C1` (stereo not drawn) [Example 661, cyclopropyl(6-(3,5-dichloro-4-hydroxyphenyl)-4-(4-(3-methoxypyrrolidin-1-yl)cyclohexylamino)quinolin-3-yl)methanone], for which the IC50 in assay [1] was 0.17 µM; in assay [2] it was 0.1 µM; in assay [3], 0.0018 µM; in assay [4], 1.4 µM; in assay [5] it was 0.25 µM.
As to `CN(C)C1CCN(C[C@H]2CC[C@H](Nc3c(C(=O)C4CC4)cnc4ccc(-c5cc(F)c(O)c(Cl)c5)cc34)CC2)C1` (stereo partly drawn) [Example 662], the IC50 was 0.15 µM in assay [1]; 0.14 µM in assay [2]; 0.004 µM in assay [3]; 0.95 µM in assay [4]; 0.19 µM in assay [5].
In the case of `COc1cc(-c2ccc3ncc(C(=O)C4CC4)c(Nc4ccc(NC5CCNC5)nc4)c3c2)cc(Cl)c1O` (stereo not drawn) [Example 665, (6-(3-chloro-4-hydroxy-5-methoxyphenyl)-4-(6-(pyrrolidin-3-ylamino)pyridin-3-ylamino)quinolin-3-yl)(cyclopropyl)methanone], the IC50 in assay [1] is 0.53 µM; in assay [2], 0.22 µM; in assay [3], 0.0033 µM; in assay [4] it was 3.7 µM; in assay [5], 0.16 µM.
For `O=C(c1cnc2ccc(-c3cc(Cl)c(O)c(Cl)c3)cc2c1Nc1ccc(NC2CCNC2)nc1)C1CC1` (stereo not drawn) [Example 666, cyclopropyl(6-(3,5-dichloro-4-hydroxyphenyl)-4-(6-(pyrrolidin-3-ylamino)pyridin-3-ylamino)quinolin-3-yl)methanone], the IC50 in assay [1] is 10 µM; in assay [2], 0.071 µM; in assay [3] it was 0.024 µM; in assay [4], 10 µM; in assay [5] it was 0.34 µM.
On to `O=C(c1cnc2ccc(-c3cc(F)c(O)c(Cl)c3)cc2c1Nc1ccc(NC2CCNC2)nc1)C1CC1` (stereo not drawn) [Example 667, (6-(3-chloro-5-fluoro-4-hydroxyphenyl)-4-(6-(pyrrolidin-3-ylamino)pyridin-3-ylamino)quinolin-3-yl)(cyclopropyl)methanone], for which the IC50 worked out at 7.7 µM in assay [1]; 0.077 µM in assay [2]; 0.01 µM in assay [3]; 10 µM in assay [4]; 0.17 µM in assay [5].
Consider `COc1cc(-c2ccc3ncc(C(=O)C4CC4)c(N[C@H]4CC[C@H](CN5CCC(N(C)C)C5)CC4)c3c2)cc(Cl)c1O` (stereo partly drawn) [Example 668], for which the IC50 amounted to 0.56 µM in assay [1]; 1.4 µM in assay [2]; 0.0039 µM in assay [3]; 2.6 µM in assay [4]; 1 µM in assay [5].
For `COc1cc(-c2ccc3ncc(C(=O)C4CC4)c(Nc4ccc(N5CCC(O)C5)nc4)c3c2)cc(Cl)c1O` (stereo not drawn) [Example 669, (6-(3-chloro-4-hydroxy-5-methoxyphenyl)-4-(6-(3-hydroxypyrrolidin-1-yl)pyridin-3-ylamino)quinolin-3-yl)(cyclopropyl)methanone], in that order: 0.46 µM, 0.75 µM, 0.012 µM, 4.4 µM and 0.24 µM.
For `O=C(c1cnc2ccc(-c3cc(Cl)c(O)c(Cl)c3)cc2c1Nc1ccc(N2CCC(O)C2)nc1)C1CC1` (stereo not drawn) [Example 670, cyclopropyl(6-(3,5-dichloro-4-hydroxyphenyl)-4-(6-(3-hydroxypyrrolidin-1-yl)pyridin-3-ylamino)quinolin-3-yl)methanone], in that order: 0.72 µM, 0.59 µM, 0.0069 µM, 5.3 µM and 0.43 µM.
For the molecule `O=C(c1cnc2ccc(-c3cc(F)c(O)c(Cl)c3)cc2c1Nc1ccc(N2CCC(O)C2)nc1)C1CC1` (stereo not drawn) [Example 671, (6-(3-chloro-5-fluoro-4-hydroxyphenyl)-4-(6-(3-hydroxypyrrolidin-1-yl)pyridin-3-ylamino)quinolin-3-yl)(cyclopropyl)methanone], the IC50 was 0.85 µM in assay [1]; 0.52 µM in assay [2]; 0.025 µM in assay [3]; 4.9 µM in assay [4]; 0.3 µM in assay [5].
With `O=C(c1cnc2ccc(-c3cc(F)c(O)c(Cl)c3)cc2c1Nc1ccc(CN2CCCC2)nc1)C1CC1` [Example 672, (6-(3-chloro-5-fluoro-4-hydroxyphenyl)-4-(6-(pyrrolidin-1-ylmethyl)pyridin-3-ylamino)quinolin-3-yl)(cyclopropyl)methanone], the IC50 was found to be 0.17 µM in assay [1]; 0.16 µM in assay [2]; 0.014 µM in assay [3]; 3.2 µM in assay [4]; 0.39 µM in assay [5].
For `CN(C)C[C@]1(O)CC[C@@H](Nc2c(C(=O)C3CC3)cnc3ccc(-c4cc(F)c(O)c(Cl)c4)cc23)CC1` [Example 673, (6-(3-chloro-5-fluoro-4-hydroxyphenyl)-4-((cis-4-((dimethylamino)methyl)-4-hydroxycyclohexyl)amino)quinolin-3-yl)(cyclopropyl)methanone], the concentration for half-maximal inhibition (IC50) in assay [1] is 0.16 µM; in assay [2] it was 0.089 µM; in assay [3], 0.0042 µM; in assay [4] it was 1.4 µM; in assay [5] it was 0.16 µM.

Usually IC50 stands for the concentration at which inhibition is half-maximal.
